The experiment addresses T1, HuRfl (Homo sapiens, UniProt Q15717).
T1 construct: HuRfl full length HuR protein
The experiment can be described thus: Competition experiments with ARE RNA binding to HuRfl (anisotropy, 2D-FIDA). The conditions noted are these: dissociation constants from competition experiments with ARE RNA binding to HuRfl; 1:1:1 stoichiometric, competitive inhibition assumed. The method, then:
(1) A cellular reporter gene assay with firefly luciferase under control of the IL-2 or TNF-α AU-rich element. This assay is designed to identify cellularly active, non-toxic inhibitors of ARE-mediated mRNA stabilization. The confirmed hits are tested in a control assay with the luciferase CDS under the IL-2 or TNF-α promoter to exclude compounds acting at the transcriptional level. By definition, the identified hit compounds interfere with posttranscriptional stabilization of short-lived ARE mRNAs at some level along the ARE pathway. (2) In vitro screen for HuR-ARE inhibitors using confocal fluctuation spectroscopy. This assay uses 2D-FIDA to monitor binding of HuR12, a shortened variant of HuR to a TMR labeled ARE RNA in solution. Compounds identified in this screen are supposed to interfere with HuR-ARE recognition by binding either to the ARE or to HuR12. (3) CONA with HuR. Combinatorial on-bead libraries are screened for high affinity HuR binders with CONA. After picking of hit beads and cleavage of on-bead binders from the solid support, the compound structures are decoded by PHPLC-MS. Binding of resynthesized hit compounds to HuR is tested in solution. As the primary result, the identified compounds represent high affinity HuR binders. Functionally, these may be inhibitors of any HuR activity including ARE recognition, nucleocytoplasmic shuttling and protection of the mRNA from ARE-dependent degradation.
The RNA fraction bound y is calculated from the anisotropy data based on y=(r−rmin)/((r−rmin)+Q(rmax−r)) with r≡ measured anisotropy, rmin, rmax≡ anisotropy of the free and HuR bound RNA, respectively, Q ≡ quenching. Dissociation constants Kd are determined by nonlinear curve fitting with KMath in Mathematica 5.0.0, assuming a 1:1:1 stoichiometric, competitive inhibition.

As a reminder, the Kd is the concentration at which binding is half-saturated.

T1 sequence (Q15717 whole entry): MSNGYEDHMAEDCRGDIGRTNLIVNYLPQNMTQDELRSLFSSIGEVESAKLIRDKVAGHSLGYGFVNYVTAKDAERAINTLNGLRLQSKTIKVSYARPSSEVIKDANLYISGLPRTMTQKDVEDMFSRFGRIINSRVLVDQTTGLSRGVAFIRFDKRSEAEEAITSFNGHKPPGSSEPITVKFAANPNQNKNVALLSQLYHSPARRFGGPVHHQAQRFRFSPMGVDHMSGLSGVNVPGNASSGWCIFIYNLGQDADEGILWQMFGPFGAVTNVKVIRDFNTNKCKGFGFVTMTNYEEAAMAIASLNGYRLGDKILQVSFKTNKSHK

The molecule `COCCn1c(C(=O)CN2CCC(C(N)=O)CC2)cc(C(=O)NC(CCO)C(=O)NCCCN2CCCC2=O)c1C` (stereo not shown) [Example 4, 1-{2-[4-{3-Hydroxy-1-[3-(2-oxo-pyrrolidin-1-yl)-propylcarbamoyl]-propylcarbamoyl}-1-(2-methoxy-ethyl)-5-methyl-1H-pyrrol-2-yl]-2-oxo-ethyl}-piperidine-4-carboxylic acid amide] yielded a dissociation constant Kd of 103 ± 20 nM.
Regarding `COc1cccc(CNC(=O)c2ccc(C(=O)NC(Cc3ccc(CN)cc3)C(=O)NCc3ccc(C)cc3)cc2)c1` (stereo not shown) [Example 3, N-[2-(4-Aminomethyl-phenyl)-1-(4-methyl-benzylcarbamoyl)-ethyl]-N′-(3-methoxy-benzyl)-terephthalamide], the Kd amounted to 92 ± 22 nM.
Molecule `Cc1c(C(=O)NC(Cc2c[nH]c3ccccc23)C(=O)NCCCN2CCCC2=O)cc(C(=O)CN2CCCCC2)n1Cc1ccccc1` (stereo not shown) [Example 6, 1-Benzyl-2-methyl-5-(2-piperidin-1-yl-acetyl)-1H-pyrrole-3-carboxylic acid {2-(1H-indol-3-yl)-1-[3-(2-oxo-pyrrolidin-1-yl)-propylcarbamoyl]-ethyl}-amide] had a Kd of 143 ± 27 nM.
For `COc1cccc(CCn2c(C(=O)CN3CCCCC3)cc(C(=O)NC(CC(=O)O)C(=O)NCCCN3CCCC3=O)c2C)c1` (stereo not shown) [Example 5, 3-{[1-[2-(3-Methoxy-phenyl)-ethyl]-2-methyl-5-(2-piperidin-1-yl-acetyl)-1H-pyrrole-3-carbonyl]-amino}-N-[3-(2-oxo-pyrrolidin-1-yl)-propyl]-succinamic acid], the Kd is 104 ± 14 nM.

The values above are taken from patent US20090005419A1, “Organic Compounds” (priority 2005, published 2009).
